Data on 16 compounds can be found in patent US11572362B2, “Pyrrolo[1,2-b]pyridazine derivatives” (Gilead Sciences, Inc., priority 2018, dated 2023).

In one experiment the test system is TNFα. In words: IRAK4 Monocyte TNFα Cell Based Assay. As to conditions: Monocyte; cryopreserved human monocytes, 50 pg/ml LPS, compound 1 hour pre-treatment, 4 hours stimulation, TNFα by TR-FRET. On the procedure:
IRAK4 Monocyte TNFα Cell Based Assay Procedure:
The cell suspension was then plated at a density of 5,000 cells/well onto black 384 well Greiner clear bottom plates. Plates were pre-spotted with test compounds and serially diluted in DMSO where 40 nL/well were delivered using the Echo 550 acoustic liquid dispenser (Labcyte®) for a final DMSO concentration of 0.1%. Plated cells were treated with compound for 1 hour at 37° C. Cells were then stimulated with 50 pg/ml of LPS (Sigma) excluding outside columns of plate used for unstimulated cell control wells. Cells were incubated for an additional 4 hours at 37° C. Cells were then spun out of the media and 5 μl of sample were taken and analyzed for total TNFα content using the TR-FRET Human TNFα detection system (CisBio). This system utilizes two labeled antibodies (cryptate and XL665) that bind to two different epitopes of the TNFα molecule and produce FRET signal proportional to the concentration of TNFα in the sample. Detection antibodies are mixed 50:50 and 5 μL were dispensed into each well. Plates were covered with clear seals and incubated at room temp overnight. The following morning plates were read using an Envision 2103 Multilabeled reader (PerkinElmer) with excitation/emission/FRET emission at 340 nm/615 nm/665 nm, respectively. Fluorescence intensities at 615 nm and 665 nm emission wavelengths were expressed as a ratio (665 nm/615 nm). Percent of control was calculated as follows: % Control=100×(RatioSample−Ratio0% Stimulation)/(Ratio100% Stimulation−Ratio0% Stimulation)
where unstimulated cells (0% stimulation) were the negative control and stimulated cells (100% stimulation) were used as the positive control.
In general terms: TR-FRET usually uses a lanthanide donor and a delayed reading to cut background.

The target of a further experiment is IRAK4 (Homo sapiens (Human), UniProt Q9NWZ3). Nature of the experiment: IRAK4 Biochemical Assay (TR-FRET/HTRF). As to conditions: IRAK4 enzyme 0.75 nM, 500 μM ATP, 2 μM STK1 peptide, 120 min. On the procedure: IRAK4 Biochemical Assay Procedure:
IRAK4 enzyme (Carna Biosciences, Chuo-ku, Kobe, Japan) activity was measured by detecting phosphorylated peptide substrate formation using an antibody against the phosphorylated peptide substrate. This is a time-resolved fluorescence resonance energy transfer (TR-FRET) immunoassay, based on the STK1 KinEASE Assay (Cisbio, Bedford, Mass.). The assay was designed as a simple two-step, endpoint assay (a 5 μl enzyme reaction followed by 5 μl stop and detect Solution) performed in ProxiPlate-384 Plus plates (Perkin Elmer, Waltham, Mass.). Staurosporine, a non-selective kinase inhibitor was used as a positive control. Compounds diluted in DMSO were spotted into 384 well plates using a Labcyte® Echo 550 Liquid Handling System prior to addition of IRAK4 enzyme and peptide substrate. Reaction solutions were delivered using a Multi-Flo (Bio-Tek Instruments). The enzyme and peptide solution was incubated with compound for 15 minutes at room temp before the reaction was initiated by the addition of ATP. The standard 5 μl reaction mixture contained 500 μM ATP, 2 μM peptide (STK1 Peptide), 0.75 nM of IRAK4 in reaction buffer (50 mM HEPES, pH 7.0, 0.02% NaN3, 0.01% BSA, 0.1 mM Orthovanadate, 5 mM MgCl2, 0.025% NP-40, 1 mM DTT). After 120 min of incubation at room temperature, 5 μl of Stop and Detect Solution (1:100 Cryptate labeled anti-phosphorylated peptide antibody solution and 125 nM Tracer in a 50 mM HEPES pH 7.0 detection buffer containing sufficient EDTA) was added. The plate was then further incubated for 60 minutes at room temperature and read on Envision 2103 Multilabeled reader (PerkinElmer) with excitation/emission/FRET emission at 340 nm/615 nm/665 nm, respectively. Fluorescence intensities at 615 nm and 665 nm emission wavelengths were expressed as a ratio (665 nm/615 nm). Percentage of inhibition was calculated as below: % Inhibition=100×(RatioSample−Ratio0% Inhibition)/(Ratio100% Inhibition−Ratio0% Inhibition)
The 0% inhibition value comes from control wells lacking inhibitor. The 100% inhibition value comes from control wells containing a saturating amount of known inhibitor staurosporine.

One may read the EC50 as the concentration giving half of the maximal effect. The IC50 is the concentration at which inhibition is half-maximal. Low values mean greater potency in that assay, high ones weaker potency in that assay.

Chain of IRAK4 (Q9NWZ3 whole entry): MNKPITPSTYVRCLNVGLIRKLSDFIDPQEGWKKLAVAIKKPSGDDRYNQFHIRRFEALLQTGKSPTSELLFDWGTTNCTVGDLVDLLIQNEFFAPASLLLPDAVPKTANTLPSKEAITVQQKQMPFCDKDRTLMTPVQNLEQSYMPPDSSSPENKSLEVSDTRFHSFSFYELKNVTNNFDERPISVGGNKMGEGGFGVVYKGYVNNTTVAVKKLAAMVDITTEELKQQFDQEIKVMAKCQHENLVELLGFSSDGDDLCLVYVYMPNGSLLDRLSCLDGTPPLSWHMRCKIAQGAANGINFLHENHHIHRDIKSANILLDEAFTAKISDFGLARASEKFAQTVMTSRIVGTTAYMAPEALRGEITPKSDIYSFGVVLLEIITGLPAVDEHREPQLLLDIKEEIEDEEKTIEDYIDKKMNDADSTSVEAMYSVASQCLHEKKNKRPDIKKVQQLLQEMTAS

With `CC(C)(O)[C@H](F)CNC(=O)c1cnc(-c2ccc3cc(C#N)cnn23)cc1NC1CCC(c2cnn(CC(F)(F)F)c2)CC1` (stereo partly drawn) [Compound 6, (R)-6-(3-cyanopyrrolo[1,2-b]pyridazin-7-yl)-N-(2-fluoro-3-hydroxy-3-methylbutyl)-4-((4-(1-(2,2,2-trifluoroethyl)-1H-pyrazol-4-yl)cyclohexyl)amino)nicotinamide], in the experiment with TNFα, the EC50 was determined as 70 nM.
On to `CC(C)(O)[C@H](F)CNC(=O)c1cnc(-c2ccc3cc(C#N)cnn23)cc1N[C@H]1CC[C@H](c2cncs2)CC1` [Compound 49, 6-(3-cyanopyrrolo[1,2-b]pyridazin-7-yl)-N-((R)-2-fluoro-3-hydroxy-3-methylbutyl)-4-(((1r,4R)-4-(thiazol-5-yl)cyclohexyl)amino)nicotinamide], for which the EC50 with TNFα is 13 nM. This compound came in with an IC50 on IRAK4 below 1 nM.
Take `Cc1ncc([C@H]2CC[C@H](Nc3cc(-c4ccc5cc(C#N)cnn45)ncc3C(=O)NC[C@@H](F)C(C)(C)O)CC2)s1` [Compound 50, 6-(3-cyanopyrrolo[1,2-b]pyridazin-7-yl)-N-((R)-2-fluoro-3-hydroxy-3-methylbutyl)-4-(((1r,4R)-4-(2-methylthiazol-5-yl)cyclohexyl)amino)nicotinamide]: in the experiment with TNFα, the EC50 came out at 52 nM. Moreover, the IC50 against IRAK4 came out at 1 nM.
With `CC(C)(O)[C@H](F)CNC(=O)c1cnc(-c2ccc3cc(C#N)cnn23)cc1N[C@H]1CC[C@H](n2ccnn2)CC1` [Compound 31, 4-(((1r,4R)-4-(1H-1,2,3-triazol-1-yl)cyclohexyl)amino)-6-(3-cyanopyrrolo[1,2-b]pyridazin-7-yl)-N-((R)-2-fluoro-3-hydroxy-3-methylbutyl)nicotinamide], the concentration for a half-maximal effect (EC50) in the experiment on TNFα was 40 nM. Further, the IC50 against IRAK4 was 1 nM.
Regarding `CC(C)(O)[C@H](F)CNC(=O)c1cnc(-c2ccc3cc(C#N)cnn23)cc1N[C@H]1CC[C@H](n2cc(C(F)(F)F)cn2)CC1` [Compound 30, 6-(3-cyanopyrrolo[1,2-b]pyridazin-7-yl)-N-((R)-2-fluoro-3-hydroxy-3-methylbutyl)-4-(((1r,4R)-4-(4-(trifluoromethyl)-1H-pyrazol-1-yl)cyclohexyl)amino)nicotinamide], the EC50 in the experiment with TNFα was determined as 136 nM. Besides, inhibition on IRAK4 was half-maximal at 4 nM (IC50).
The matching figures for `CC(C)(O)[C@H](F)CNC(=O)c1cnc(-c2ccc3cc(C#N)cnn23)cc1NC1CCC(c2cnc(C(F)F)nc2)CC1` (stereo partly drawn) [Compound 59, (R)-6-(3-cyanopyrrolo[1,2-b]pyridazin-7-yl)-4-((4-(2-(difluoromethyl)pyrimidin-5-yl)cyclohexyl)amino)-N-(2-fluoro-3-hydroxy-3-methylbutyl)nicotinamide]: 21 nM and 1 nM.
The matching figures for `Cn1nnnc1[C@H]1CC[C@H](Nc2cc(-c3ccc4cc(C#N)cnn34)ncc2C(=O)NC[C@@H](F)C(C)(C)O)CC1` [Compound 16, 6-(3-cyanopyrrolo[1,2-b]pyridazin-7-yl)-N-((R)-2-fluoro-3-hydroxy-3-methylbutyl)-4-(((1r,4R)-4-(1-methyl-1H-tetrazol-5-yl)cyclohexyl)amino)nicotinamide]: 26 nM and below 1 nM.
For the compound `CC(C)(O)[C@H](F)CNC(=O)c1cnc(-c2ccc3cc(C#N)cnn23)cc1N[C@H]1CC[C@H](n2cc(C3COC3)nn2)CC1` [Compound 33, 6-(3-cyanopyrrolo[1,2-b]pyridazin-7-yl)-N-((R)-2-fluoro-3-hydroxy-3-methylbutyl)-4-(((1r,4R)-4-(4-(oxetan-3-yl)-1H-1,2,3-triazol-1-yl)cyclohexyl)amino)nicotinamide], the EC50 in the experiment on TNFα came to 200 nM. This compound also came in with an IC50 against IRAK4 of 1 nM.
For `CC(C)(O)[C@H](F)CNC(=O)c1cnc(-c2ccc3cc(C#N)cnn23)cc1N[C@H]1CC[C@H](c2cnn(C(F)F)c2)CC1` [Compound 3, 6-(3-cyanopyrrolo[1,2-b]pyridazin-7-yl)-4-(((1r,4R)-4-(1-(difluoromethyl)-1H-pyrazol-4-yl)cyclohexyl)amino)-N-((R)-2-fluoro-3-hydroxy-3-methylbutyl)nicotinamide], the half-maximal effective concentration (EC50) in the experiment on TNFα worked out at 9 nM. Moreover, the IC50 against IRAK4 is below 1 nM.
`Cc1nnc([C@H]2CC[C@H](Nc3cc(-c4ccc5cc(C#N)cnn45)ncc3C(=O)NC[C@@H](F)C(C)(C)O)CC2)s1` [Compound 52, 6-(3-cyanopyrrolo[1,2-b]pyridazin-7-yl)-N-((R)-2-fluoro-3-hydroxy-3-methylbutyl)-4-(((1r,4R)-4-(5-methyl-1,3,4-thiadiazol-2-yl)cyclohexyl)amino)nicotinamide]: the concentration giving a half-maximal response (EC50) in the experiment on TNFα is 50 nM. The compound also had an IC50 at IRAK4 of 1 nM.
On to `Cc1noc([C@H]2CC[C@H](Nc3cc(-c4ccc5cc(C#N)cnn45)ncc3C(=O)NC[C@@H](F)C(C)(C)O)CC2)n1` [Compound 45, 6-(3-cyanopyrrolo[1,2-b]pyridazin-7-yl)-N-((R)-2-fluoro-3-hydroxy-3-methylbutyl)-4-(((1r,4R)-4-(3-methyl-1,2,4-oxadiazol-5-yl)cyclohexyl)amino)nicotinamide], for which the concentration giving a half-maximal response (EC50) with TNFα was 85 nM. At IRAK4, this compound returned an IC50 of 2 nM.
`CC(C)(O)[C@H](F)CNC(=O)c1cnc(-c2ccc3cc(C#N)cnn23)cc1N[C@H]1CC[C@H](c2nnc(C(F)F)o2)OC1` [Compound 74, 6-(3-cyanopyrrolo[1,2-b]pyridazin-7-yl)-4-(((3S,6R)-6-(5-(difluoromethyl)-1,3,4-oxadiazol-2-yl)tetrahydro-2H-pyran-3-yl)amino)-N-((R)-2-fluoro-3-hydroxy-3-methylbutyl)nicotinamide]: in the experiment on TNFα, the EC50 came to 71.4 nM. The same compound yielded an IC50 against IRAK4 of 0.868 nM.
Regarding `CC(C)(O)[C@H](F)CNC(=O)c1cnc(-c2ccc3cc(C#N)cnn23)cc1N[C@H]1CC[C@H](c2cncnc2)CC1` [Compound 57, 6-(3-cyanopyrrolo[1,2-b]pyridazin-7-yl)-N-((R)-2-fluoro-3-hydroxy-3-methylbutyl)-4-(((1r,4R)-4-(pyrimidin-5-yl)cyclohexyl)amino)nicotinamide], the half-maximal effective concentration (EC50) with TNFα worked out at 11 nM. Further, the IC50 against IRAK4 came out at 2 nM.
In turn, `CC(C)(O)[C@H](F)CNC(=O)c1cnc(-c2ccc3cc(C#N)cnn23)cc1N[C@H]1CC[C@H](c2cc[nH]n2)CC1` [Compound 70, 4-(((1r,4R)-4-(1H-pyrazol-3-yl)cyclohexyl)amino)-6-(3-cyanopyrrolo[1,2-b]pyridazin-7-yl)-N-((R)-2-fluoro-3-hydroxy-3-methylbutyl)nicotinamide] returned an IC50 on IRAK4 of 0.822 nM.
For `CC(C)(O)[C@H](F)CNC(=O)c1cnc(-c2ccc3cc(C#N)cnn23)cc1N[C@H]1CC[C@H](c2cnn(C(F)F)n2)CC1` [Compound 75, 6-(3-cyanopyrrolo[1,2-b]pyridazin-7-yl)-4-(((1r,4R)-4-(2-(difluoromethyl)-2H-1,2,3-triazol-4-yl)cyclohexyl)amino)-N-((R)-2-fluoro-3-hydroxy-3-methylbutyl)nicotinamide], the IC50 against IRAK4 was determined as 0.875 nM.
The compound `CC(C)(O)[C@H](F)CNC(=O)c1cnc(-c2ccc3cc(C#N)cnn23)cc1N[C@H]1CC[C@@H](c2cc[nH]n2)CC1` [Compound 71, 4-(((1s,4S)-4-(1H-pyrazol-3-yl)cyclohexyl)amino)-6-(3-cyanopyrrolo[1,2-b]pyridazin-7-yl)-N-((R)-2-fluoro-3-hydroxy-3-methylbutyl)nicotinamide] displayed an IC50 on IRAK4 of 3.13 nM.
